Converted amounts (≈) assume the structure as drawn.
Assays:
[1] = system: S. aureus strain Newman (wild-type); test: MIC measurement, susceptibility of wild-type strain to fluoroquinolones and vancomycin; format: cell-based; settings: Staphylococcus aureus
Protocol: (§1) S. aureus cells were serially diluted and an equal number of cells was spotted on a plate containing various concentrations of antibiotics. The S. aureus strain Newman (wild-type) and the mutant strains mgrA- and mgrH1- (knock outs) were tested.

[2] = system: S. aureus mgrA mutant (mgrA-) strain; test: MIC measurement, susceptibility of mgrA mutant strain to fluoroquinolones and vancomycin; format: cell-based; settings: Staphylococcus aureus
Protocol: as §1

[3] = biological target: T1, MgrA (Staphylococcus aureus, UniProt Q99VT5); test: Alkylation of Cys12 in MgrA, DTNB assay for free thiol content; format: biochemical, S. aureus; design: His6 (N, cleaved yes); made in house; host or cells: E. coli BL21(DE3); settings: 8 equivalents alkylator, 0.05 mM MgrA in water, pH 7.4, 1 h, r.t.
T1 sequence (Q99VT5 1-147): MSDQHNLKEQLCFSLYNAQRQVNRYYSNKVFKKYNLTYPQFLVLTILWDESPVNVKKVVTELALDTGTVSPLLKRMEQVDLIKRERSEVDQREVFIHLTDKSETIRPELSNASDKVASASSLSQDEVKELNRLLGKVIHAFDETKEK
Protocol: Alkylation of Cys12 in MgrA in vitro and in vivo. In a study to test potential alkylation of Cys12 in MgrA, the inventors examined several alkylators (1-7, Table 3). Eight equivalents of alkylators were used to react with 0.05 mM MgrA in water for 1 h at pH 7.4 at room temperature. Alkylation of Cys12 was determined by DTNB assay for free thiol content. […] Over 95% of cysteine thiols were alkylated by compound 7 after 1 h of reaction.

[4] = system: norA gene; test: qRT-PCR of norA gene activation; format: cell-based, S. aureus; settings: Newman strain
Protocol: Lanes 1 and 2, purified MgrA (2 μM) with a 40 bp oligonucleotide (0.4 pmol) containing the MgrA binding sequence on the sarV promoter region; lanes 3 and 4, MgrA was treated with 100 equivalents of phenyl vinyl sulfone (7) for 30 min (lane 3) or 60 min (lane 4) before mixed with DNA and applied for the shift assay. FIGS. 13A-B: The Cys-alkylator phenyl vinyl sulfone (PVS) has similar effects on MgrA as hydrogen peroxide. (FIG. 13A) Treatment of the Newman strain with PVS turned on resistance of the pathogen towards vancomycin. (FIG. 13B) The norA gene is repressed by MgrA; however, treatment of the Newman strain with either H2O2 or PVS can turn on this gene.
Activation of MgrA by phenyl vinyl sulfone (PVS) inside S. aureus was tested. […] To further confirm the effect of PVS, the inventors monitored activation of the norA gene known to be repressed by MgrA. […] The next challenge is to develop vinyl sulfones that have high affinity and specificity toward MgrA. Of course, a non-covalent modulator that can activate MgrA with high sensitivity and specificity via direct binding is also highly desirable.

[5] = system: S. aureus Newman strain; test: Antibiotic sensitivity assay of S. aureus under oxidative stress or alkylator treatment; format: cell-based, Staphylococcus aureus
Protocol: The change of susceptibility levels of S. aureus strains toward ciprofloxacin and vancomycin under oxidative stress. The antibiotic resistance levels were tested in the absence (−H2O2) or presence (+H2O2) of 100 μM H2O2 by a plate sensitivity assay (FIG. 7A) and were also determined in the absence (−PQ) or presence (+PQ) of 25 μM paraquat by a 96-well-plate sensitivity assay (FIG. 7B). […] Empty bars are non-treated cultures. Results are mean ±s.d. from three independent experiments performed in duplicate.
Five strains were used to test oxidation responses in vivo: the wild-type Newman, the mgrA- mutant (knock out), the mgrA- mutant complemented with mgrA cloned in a plasmid pYJ335, the mgrA- mutant complemented with mgrAC12S in pYJ335, and the control mutant strain with pYJ335.
The susceptibility levels of all five strains toward CIP and VCM were also evaluated in the absence and presence of paraquat (PQ), another reagent known to cause oxidative stress in vivo (FIG. 7B).

[6] = biological target: T2, MgrH1 (Staphylococcus aureus, UniProt Q2FVN3); settings: 4 equiv oxidant, 10 min, r.t.
T2 sequence (Q2FVN3 1-148): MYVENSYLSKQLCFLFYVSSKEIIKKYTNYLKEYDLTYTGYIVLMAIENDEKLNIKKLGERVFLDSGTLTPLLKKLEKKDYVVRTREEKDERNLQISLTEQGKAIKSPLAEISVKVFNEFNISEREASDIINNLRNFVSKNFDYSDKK

[7] = biological target: T3, SarA (Staphylococcus aureus, UniProt P0C1U6); test: Oxidation of Cys9 in SarA by oxidants; format: biochemical, S. aureus; settings: 100 equiv oxidant, 30 min, r.t.
T3 construct: made in house
T3 sequence (P0C1U6 1-124): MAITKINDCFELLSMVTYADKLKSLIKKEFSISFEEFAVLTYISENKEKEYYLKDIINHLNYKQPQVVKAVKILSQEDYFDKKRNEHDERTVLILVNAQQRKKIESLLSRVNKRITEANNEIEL
From the text: SarA may adopt an oxidation sensing mechanism similar to MgrA. Cys9 in SarA might be oxidized by ROS or other reactive species which could lead to its dissociation from DNA and activation of the sarA regulon. To test this hypothesis, they cloned, expressed, and purified SarA.

[8] = biological target: T1, MgrA; settings: 4 equiv oxidant, 10 min, r.t.
[9] = system: splB gene; settings: Newman strain, 0.4 mM, 30 min, qRT-PCR
From the text: (FIG. 10C) Monitoring in vivo effects of SarA oxidation by qRT-PCR.
The inventors also monitored activation of a virulence gene splB in S. aureus.

[10] = biological target: T1, MgrA; test: Binding assays of MgrA with antibiotics; design: His6 (N, cleaved yes); made in house; host or cells: E. coli BL21(DE3); species or system S. aureus
From the text: The regulation mechanism of MgrA. […] The inventors were very intrigued by what they had learned about MgrA: • i) MgrA is a DNA binding protein based on its structure and gel shift experiments. • ii) MgrA regulates S. aureus responses to fluoroquinolones (CIP and NOR, FIG. 1), vancomycin, and oxacillin (data not shown). […] Therefore, MgrA must sense some other host or environmental signals. The mechanistic issue for MgrA frustrated the inventors after they obtained the first crystal structure of this protein. Numerous binding assays were peformed to test a variety of hypotheses. A breakthrough came from a careful inspection of the MgrA structure and its sequence, when it was noticed that there is only one Cys residue present in the entire MgrA sequence, at position 12. This Cys residue, located in the N-terminal α1, is precisely in the dimerization domain (FIG. 4A) and seems to play an important role in orienting the MgrA dimer conformation. Each monomer presents its Cys12 to be recognized through hydrogen bonding to Ser113 and Tyr38 from the other monomer (FIG. 4B).

Compound `O=C(O)c1cn(C2CC2)c2cc(N3CCNCC3)c(F)cc2c1=O` [CIP, ciprofloxacin] has an MIC [1] of 0.35 µg/mL (≈ 1.06 µM) and an MIC [2] of 0.7 µg/mL (≈ 2.11 µM).

`CCOC(=O)CI` [Compound 2] was tested, and the “Alkylation percentage (Cys12 of MgrA)” value [3] was over 95%.

For `O=C(CI)c1ccccc1` [Compound 3], the “Alkylation percentage (Cys12 of MgrA)” value [3] was over 95%.

In the case of `O=C1C=CC(=O)N1` [Compound 4], the “Alkylation percentage (Cys12 of MgrA)” value [3] is reported as over 95%.

In the case of `c1ccc(OCC2CO2)cc1` (centres unmarked) [Compound 5], the “Alkylation percentage (Cys12 of MgrA)” value [3] is reported as 48%.

For `c1ccc(CC2CO2)cc1` (centres unmarked) [Compound 6], the “Alkylation percentage (Cys12 of MgrA)” value [3] was 59%.

`C=CS(=O)(=O)c1ccccc1` [Compound 7, phenyl vinyl sulfone] was tested, and the “Activation of norA gene” value [4] was “activated norA as efficient as H2O2” and the “Change of resistance to vancomycin” value ([5]; 25 μM PVS, Newman strain) was “enhanced resistance to vancomycin”.

In the case of `OO` [Compound H2O2, hydrogen peroxide], the “Oxidation of MgrH1 (Cys13)” value [6] is reported as 4 equiv, 10 min, 71%, the “Oxidation of SarA (Cys9)” value [7] is reported as 15% oxidation at r.t and the “Oxidation of MgrA (Cys12)” value [8] is reported as 4 equiv, 10 min, 65%. For the same compound, the “Change of resistance toward CIP and VCM” value ([5]; 100 μM H2O2, Newman strain, plate sensitivity assay) was “increased resistance” and the “Activation of splB gene” value [9] was “activated”.

In the case of `CCn1cc(C(=O)O)c(=O)c2cc(F)c(N3CCNCC3)cc21` [NOR, norfloxacin], the MIC [1] is reported as 0.7 µg/mL (≈ 2.19 µM) and the MIC [2] is reported as 1.4 µg/mL (≈ 4.38 µM).

In the case of `C[n+]1ccc(-c2cc[n+](C)cc2)cc1` [PQ, paraquat], the “Change of resistance toward CIP and VCM” value ([5]; 25 μM paraquat, Newman strain, 96-well-plate sensitivity assay) is reported as “increased antibiotic resistance”.

`CN[C@H](CC(C)C)C(=O)N[C@H]1C(=O)N[C@@H](CC(N)=O)C(=O)N[C@H]2C(=O)N[C@H]3C(=O)N[C@H](C(=O)N[C@H](C(=O)O)c4cc(O)cc(O)c4-c4cc3ccc4O)[C@H](O)c3ccc(c(Cl)c3)Oc3cc2cc(c3O[C@@H]2O[C@H](CO)[C@@H](O)[C@H](O)[C@H]2O[C@H]2C[C@](C)(N)[C@H](O)[C@H](C)O2)Oc2ccc(cc2Cl)[C@H]1O` [VCM, vancomycin] was tested, and the “Binding to MgrA” value [10] was “does not bind”, the MIC [1] was 1.2 µg/mL (≈ 0.828 µM) and the MIC [2] was 2.4 µg/mL (≈ 1.66 µM).

From patent publication US20070248581A1, “MGRA IS A REDOX REGULATOR OF ANTIBIOTIC SENSITIVITY AND VIRULENCE” (priority 2006, published 2007)
